In brackets after ≈: the same amount, converted by molar mass. Like-named read-outs stand apart in the source and are kept apart here. Each block holds one compound with its values, some of them ahead of it.
Key:
[1] = system: Streptococcus pneumoniae A9585; experiment: MIC by conventional serial broth dilution assay; format: cell-based
[2] = system: Streptococcus pneumoniae/penicillin intermediate A27881; experiment: MIC by conventional serial broth dilution assay; format: cell-based
[3] = system: Streptococcus pneumoniae/penicillin resistant A28272; experiment: MIC by conventional serial broth dilution assay; format: cell-based
[4] = system: Enterococcus faecalis A20688; experiment: MIC by conventional serial broth dilution assay; format: cell-based
[5] = system: Enterococcus faecalis A27519; experiment: MIC by conventional serial broth dilution assay; format: cell-based
[6] = system: Enterococcus faecium A24885; experiment: MIC by conventional serial broth dilution assay; format: cell-based
[7] = system: Enterococcus avium A27456; experiment: MIC by conventional serial broth dilution assay; format: cell-based
[8] = system: Staphylococcus aureus/β-lactamase positive A15090; experiment: MIC by conventional serial broth dilution assay; format: cell-based
[9] = system: Staphylococcus aureus/QC/ATCC#29213 A24407; experiment: MIC by conventional serial broth dilution assay; format: cell-based
[10] = system: Staphylococcus aureus/homo methicillin resistant A27223; experiment: MIC by conventional serial broth dilution assay; format: cell-based
[11] = system: Staphylococcus epidermidis A24548; experiment: MIC by conventional serial broth dilution assay; format: cell-based
[12] = system: Staphylococcus haemolyticus A27298; experiment: MIC by conventional serial broth dilution assay; format: cell-based
[13] = system: Moraxella catarrhalis/β-lactamase positive A22344; experiment: MIC by conventional serial broth dilution assay; format: cell-based
[14] = system: Moraxella catarrhalis/β-lactamase positive A25409; experiment: MIC by conventional serial broth dilution assay; format: cell-based
[15] = system: Haemophilus influenzae/β-lactamase negative A20191; experiment: MIC by conventional serial broth dilution assay; format: cell-based; conditions: β-lactamase negative, read-out: MIC
[16] = system: Haemophilus influenzae/β-lactamase negative A20183; experiment: MIC by conventional serial broth dilution assay; format: cell-based; conditions: β-lactamase negative, read-out: MIC
[17] = system: Haemophilus influenzae/β-lactamase positive A21515; experiment: MIC by conventional serial broth dilution assay; format: cell-based; conditions: β-lactamase positive, read-out: MIC
[18] = system: Gram-positive bacteria; experiment: in vitro activity against Gram-positive bacteria; format: cell-based; conditions: e.g. multiple drug resistant Enterococcus faecium
[19] = system: Streptococcus pyogenes A9604; experiment: MIC by conventional serial broth dilution assay; format: cell-based
[20] = system: Enterococcus faecium/thiostrepton resistant (10 ug/ml) SC15829; experiment: MIC by conventional serial broth dilution assay; format: cell-based
[21] = system: Staphylococcus aureus A9537; experiment: MIC by conventional serial broth dilution assay; format: cell-based
[22] = system: Staphylococcus aureus/hetero methicillin resistant A27218; experiment: MIC by conventional serial broth dilution assay; format: cell-based
[23] = system: Micrococcus luteus A9852; experiment: MIC by conventional serial broth dilution assay; format: cell-based
[24] = system: Bacillus subtilis A9506A; experiment: MIC by conventional serial broth dilution assay; format: cell-based
[25] = system: Escherichia coli A15119; experiment: MIC by conventional serial broth dilution assay; format: cell-based
[26] = system: Escherichia coli A22292; experiment: MIC by conventional serial broth dilution assay; format: cell-based
[27] = system: Escherichia coli/AcrA::Kan A28901; experiment: MIC by conventional serial broth dilution assay; format: cell-based
[28] = system: Salmonella enteritidis A9531; experiment: MIC by conventional serial broth dilution assay; format: cell-based; conditions: Salmonella enterica
[29] = system: Salmonella/WT A27207; experiment: MIC by conventional serial broth dilution assay; format: cell-based
[30] = system: Salmonella/RE A27208; experiment: MIC by conventional serial broth dilution assay; format: cell-based
[31] = system: Enterococcus faecium strain A28152; experiment: antibiotic susceptibility of the MREF strain; format: cell-based; conditions: strain description; source not stated
[32] = system: Gram-positive bacteria; conditions: reported for known thiazolyl peptides; cited from earlier work
[33] = β-lactamase positive, read-out: MIC

MIC ([1]; read-out: MIC): ≤ 0.002 µg/mL | MIC ([2]; penicillin intermediate, read-out: MIC): ≤ 0.002 µg/mL | MIC ([3]; penicillin resistant, read-out: MIC): ≤ 0.002 µg/mL | MIC ([4]; A20688, + 50% calf serum, read-out: MIC): 0.25 µg/mL | MIC ([4]; A20688, read-out: MIC): 0.03 µg/mL (≈ 0.0237 µM) | MIC ([5]; read-out: MIC): 0.03 µg/mL (≈ 0.0237 µM) | MIC ([6]; read-out: MIC): 0.03 µg/mL (≈ 0.0237 µM) | MIC ([7]; read-out: MIC): 0.03 µg/mL (≈ 0.0237 µM) | MIC ([8]; + 50% calf serum, read-out: MIC): 0.03 µg/mL | MIC [8, 33]: 0.007 µg/mL (≈ 0.00553 µM) | MIC ([9]; ATCC29213, QC/ATCC#29213, read-out: MIC): 0.007 µg/mL (≈ 0.00553 µM) | MIC ([10]; homo methicillin resistant, read-out: MIC): 0.007 µg/mL (≈ 0.00553 µM) | MIC ([11]; read-out: MIC): 0.007 µg/mL (≈ 0.00553 µM) | MIC [13, 33]: 0.06 µg/mL (≈ 0.0474 µM) | MIC [14, 33]: 0.06 µg/mL (≈ 0.0474 µM) | MIC [15]: > 64 µg/mL | MIC [16]: > 64 µg/mL | MIC [17]: > 64 µg/mL
Compound: C=C(NC(=O)c1csc(-c2nc3c(cc2O)-c2nc(cs2)C(=O)NC(C(C)O)C(=O)NC(=C(C)OC)c2nc(cs2)C(=O)NC2c4nc(cs4)C(=O)NC(COC(=O)c4c5c6c(cccc6n4O)COC(=O)C(O)C2OC5)c2nc-3cs2)n1)C(N)=O (centres unmarked) [Nocathiacin III]
MIC ([12]; read-out: MIC): 0.007 µg/mL (≈ 0.00553 µM) | inhibitory activity against Gram-positive bacteria [18]: inhibitory activity at the nanomolar level

Compound: C=C(NC(=O)c1csc(-c2nc3c(cc2O)-c2nc(cs2)C(=O)NC(C(C)O)C(=O)NC(=C(C)OC)c2nc(cs2)C(=O)NC2c4nc(cs4)C(=O)NC(COC(=O)c4[nH]c5cccc6c5c4COC2C(OC2CC(C)(O)C(N(C)C)C(C)O2)C(=O)OC6)c2nc-3cs2)n1)C(N)=O (centres unmarked) [Nocathiacin II]
MIC [1]: 0.015 µg/mL (≈ 0.0106 µM) | MIC [2]: 0.015 µg/mL (≈ 0.0106 µM) | MIC [3]: 0.015 µg/mL (≈ 0.0106 µM) | MIC [19]: 0.125 µg/mL (≈ 0.0879 µM) | MIC ([4]; A20688): 0.5 µg/mL (≈ 0.352 µM) | MIC ([4]; A20688, + 50% calf serum): 0.5 µg/mL | MIC [5]: 0.5 µg/mL (≈ 0.352 µM) | MIC [6]: 0.5 µg/mL (≈ 0.352 µM) | MIC [20]: 0.5 µg/mL (≈ 0.352 µM) | MIC [7]: 0.5 µg/mL (≈ 0.352 µM) | MIC [21]: 0.06 µg/mL (≈ 0.0422 µM) | MIC ([8]; + 50% calf serum): 0.5 µg/mL | MIC ([8]; β-lactamase positive): 0.5 µg/mL (≈ 0.352 µM) | MIC ([9]; ATCC29213): 0.5 µg/mL (≈ 0.352 µM) | MIC ([22]; + 50% calf serum): 0.5 µg/mL | MIC ([22]; hetero methicillin resistant): 0.5 µg/mL (≈ 0.352 µM) | MIC ([10]; + 50% calf serum): 0.125 µg/mL | MIC ([10]; homo methicillin resistant): 0.125 µg/mL (≈ 0.0879 µM) | MIC [23]: 0.125 µg/mL (≈ 0.0879 µM) | MIC [24]: 0.125 µg/mL (≈ 0.0879 µM) | MIC [11]: 0.125 µg/mL (≈ 0.0879 µM) | MIC [12]: 0.25 µg/mL (≈ 0.176 µM) | MIC [25]: > 128 µg/mL | MIC [26]: > 128 µg/mL | MIC [27]: > 128 µg/mL | MIC [28]: > 128 µg/mL | MIC [13]: 0.125 µg/mL (≈ 0.0879 µM) | MIC [14]: 0.125 µg/mL (≈ 0.0879 µM) | MIC [29]: > 128 µg/mL | MIC [30]: > 128 µg/mL | inhibitory activity against Gram-positive bacteria [18]: inhibitory activity at the nanomolar level

Compound: O=C(N[C@H](CO)[C@H](O)c1ccc([N+](=O)[O-])cc1)C(Cl)Cl [chloramphenicol]
resistance/sensitivity of E. faecium strain A28152 to the antibiotic [31]: sensitive

Compound: O=C(O)c1cn(C2CC2)c2cc(N3CCNCC3)c(F)cc2c1=O [ciprofloxacin]
resistance/sensitivity of E. faecium strain A28152 to the antibiotic [31]: resistant

Compound: CCC[C@@H]1C[C@@H](C(=O)N[C@@H]([C@H]2O[C@H](SC)[C@H](O)[C@@H](O)[C@H]2O)[C@H](C)Cl)N(C)C1 [clindamycin]
resistance/sensitivity of E. faecium strain A28152 to the antibiotic [31]: resistant

Compound: CC[C@H]1OC(=O)[C@H](C)[C@@H](O[C@H]2C[C@@](C)(OC)[C@@H](O)[C@H](C)O2)[C@H](C)[C@@H](O[C@@H]2O[C@H](C)C[C@H](N(C)C)[C@H]2O)[C@](C)(O)C[C@@H](C)C(=O)[C@H](C)[C@@H](O)[C@]1(C)O [erythromycin]
resistance/sensitivity of E. faecium strain A28152 to the antibiotic [31]: resistant

Compound: CO/C(C)=C1/NC(=O)[C@H]([C@@H](C)O)NC(=O)c2csc(n2)-c2cc(O)c(-c3nc(C(N)=O)cs3)nc2-c2csc(n2)[C@@H]2CSC(=O)c3[nH]c4cccc5c4c3CO[C@@H](C(NC(=O)c3csc1n3)c1nc(cs1)C(=O)N2)[C@@H](O[C@H]1C[C@](C)(O)[C@H](N(C)C)[C@H](C)O1)C(=O)OC5 [glycothiohexide-α]
antimicrobial activity against Gram-positive bacteria in vitro [32]: potent antimicrobial activity

Compound: C=C(NC(=O)c1csc(-c2nc3c(cc2O)-c2nc(cs2)C(=O)NC(C(C)O)C(=O)N/C(=C\C)c2nc(cs2)C(=O)NC2CC(O)C(=O)OCc4cccc5[nH]c(c(C)c45)C(=O)SCC(NC(=O)c4csc2n4)c2nc-3cs2)n1)C(N)=O (centres unmarked) [nosiheptide]
antimicrobial activity against Gram-positive bacteria in vitro [32]: potent antimicrobial activity

Compound: CC1(C)S[C@@H]2[C@H](NC(=O)Cc3ccccc3)C(=O)N2[C@H]1C(=O)O [penicillin G]
resistance/sensitivity of E. faecium strain A28152 to the antibiotic [31]: resistant

Compound: CO[C@H]1/C=C/O[C@@]2(C)Oc3c(C)c(O)c4c(O)c(c(/C=N/N5CCN(C)CC5)c(O)c4c3C2=O)NC(=O)/C(C)=C\C=C\[C@H](C)[C@H](O)[C@@H](C)[C@@H](O)[C@@H](C)[C@H](OC(C)=O)[C@@H]1C [rifampin]
resistance/sensitivity of E. faecium strain A28152 to the antibiotic [31]: resistant

Compound: [H]/N=C(/N)N[C@H]1[C@H](O)[C@@H](O)[C@H](O[C@@H]2O[C@@H](C)[C@](O)(C=O)[C@H]2O[C@@H]2O[C@@H](CO)[C@H](O)[C@@H](O)[C@@H]2NC)[C@@H](N/C(N)=N\[H])[C@@H]1O [streptomycin]
resistance/sensitivity of E. faecium strain A28152 to the antibiotic [31]: resistant

Compound: CN(C)C1C(=O)C(C(N)=O)=C(O)C2(O)C(=O)C3=C(O)c4c(O)cccc4C(C)(O)C3CC12 (centres unmarked) [tetracycline]
resistance/sensitivity of E. faecium strain A28152 to the antibiotic [31]: resistant

Compound: C=C(NC(=O)C(=C)NC(=O)c1csc(C2=N[C@@H]3c4csc(n4)[C@H]4NC(=O)c5csc(n5)[C@H]([C@](C)(O)[C@@H](C)O)NC(=O)[C@H]5CSC(=N5)/C(=C/C)NC(=O)[C@H]([C@@H](C)O)NC(=O)c5csc(n5)[C@]3(CC2)NC(=O)[C@H](C)NC(=O)C(=C)NC(=O)[C@H](C)NC(=O)[C@H]([C@@H](C)CC)N[C@@H]2C=Cc3c([C@H](C)O)cc(nc3[C@H]2O)C(=O)O[C@@H]4C)n1)C(N)=O [thiostrepton]
antimicrobial activity against Gram-positive bacteria in vitro [32]: potent antimicrobial activity

Compound: CN[C@H](CC(C)C)C(=O)N[C@H]1C(=O)N[C@@H](CC(N)=O)C(=O)N[C@H]2C(=O)N[C@H]3C(=O)N[C@H](C(=O)N[C@H](C(=O)O)c4cc(O)cc(O)c4-c4cc3ccc4O)[C@H](O)c3ccc(c(Cl)c3)Oc3cc2cc(c3O[C@@H]2O[C@H](CO)[C@@H](O)[C@H](O)[C@H]2O[C@H]2C[C@](C)(N)[C@H](O)[C@H](C)O2)Oc2ccc(cc2Cl)[C@H]1O [vancomycin]
resistance/sensitivity of E. faecium strain A28152 to the antibiotic [31]: resistant

Compound: gentamicin
resistance/sensitivity of E. faecium strain A28152 to the antibiotic [31]: resistant

Compound: teicoplanin
resistance/sensitivity of E. faecium strain A28152 to the antibiotic [31]: resistant

From patent US6218398A, “Nocathiacin antibiotics” (Bristol-Myers Squibb Company, priority 1999, dated 2001)
